Experimental data as given in US20260022142A1, “MACROCYCLIC IMMUNOMODULATORS” (Bristol-Myers Squibb Company, priority 2022, published 2026).
pIC50: −log10 of the molar value. Bridge positions count the residues as written; N and C are the ends. Square brackets hold non-standard residues; d marks the D form. Peptide text beside a SMILES is read from it. * marks the point of attachment. ξ: configuration not given here. Phe(4-CONH2) = NC(=O)c1ccc(C[C@H](N)C(=O)O)cc1; Bip = N[C@@H](Cc1ccc(-c2ccccc2)cc1)C(=O)O; Phe(3-Me) = Cc1cccc(C[C@H](N)C(=O)O)c1; ξBip = NC(Cc1ccc(-c2ccccc2)cc1)C(=O)O; Bta = N[C@@H](Cc1csc2ccccc12)C(=O)O; Val(3-OH) = CC(C)(O)[C@H](N)C(=O)O; hArg = N=C(N)NCCCC[C@H](N)C(=O)O; 4Pal = N[C@@H](Cc1ccncc1)C(=O)O; Cha = N[C@@H](CC1CCCCC1)C(=O)O; Cit = NC(=O)NCCC[C@H](N)C(=O)O; dCha = N[C@H](CC1CCCCC1)C(=O)O; Thr(3ξ) = CC(O)[C@H](N)C(=O)O; 12Ado = NCCCCCCCCCCCC(=O)O; dOrn = NCCC[C@@H](N)C(=O)O; hSer = N[C@@H](CCO)C(=O)O; Carboxymethyl = O=C(O)C*; Orn = NCCC[C@H](N)C(=O)O; Aun = NCCCCCCCCCCC(=O)O; Dab = NCC[C@H](N)C(=O)O; Dap = NC[C@H](N)C(=O)O; ξD = NC(CC(=O)O)C(=O)O; AEEA = NCCOCCOCC(=O)O; Propargyl = C#CC*; ξC = NC(CS)C(=O)O

target: T1, PD-1/PD-L1 interaction (PE-labeled human PD-L1-Ig binding to Jurkat cell line over-expressing human PD-1) (Homo sapiens, UniProt Q15116); assay: Jurkat-PD-1 Cell Binding High-Content Screening Assay (CBA); assay type: cell-based; details: Jurkat cell line over-expressing human PD-1; PE-labeled PD-L1-Ig 20 nM final; read-out: Jurkat hPD1-PDL1 IC50
T1 construct: expressed in transfected cells; host or cells: Jurkat
T1 sequence (Q15116 25-288): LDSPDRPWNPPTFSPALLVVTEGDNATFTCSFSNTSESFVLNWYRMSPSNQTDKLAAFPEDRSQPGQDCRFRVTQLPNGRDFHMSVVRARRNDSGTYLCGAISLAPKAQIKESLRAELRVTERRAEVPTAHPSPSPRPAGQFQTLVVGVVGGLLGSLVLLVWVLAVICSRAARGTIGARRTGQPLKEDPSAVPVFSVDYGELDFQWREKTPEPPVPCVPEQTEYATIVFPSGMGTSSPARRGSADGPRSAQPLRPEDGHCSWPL
In short: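 Read-out is high-content imaging of cell-bound phycoerythrin-tagged PD-L1-Ig on fixed, Hoechst-counterstained Jurkat cells that over-express human PD-1. Compound exposure lasts 2 h at 37° C before the labeled ligand (20 nM final) is added for a further hour.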

| SMILES | pIC50 |
| --- | --- |
| CC(C)C[C@H]1NC(=O)[C@H](CCCN)NC(=O)[C@H](Cc2ccc(O)cc2)NC(=O)[C@H](Cc2ccc(-c3ccccc3)cc2)NC(=O)[C@H](Cc2ccc(OCC(=O)O)cc2)NC(=O)[C@H](Cc2csc3ccccc23)NC(=O)[C@H](CC(=O)O)NC(=O)[C@H](Cc2ccc(OCC(=O)O)cc2)NC(=O)[C@H](CN)NC(=O)CSC[C@@H](C(=O)N[C@@H](CCN)C(=O)NCCOCCOCC(=O)NCCCCCCCCCCC(=O)O)NC(=O)[C@H](CCCN)NC(=O)[C@H](C(C)C)NC(=O)[C@H](CC2CCCCC2)NC(=O)[C@H](CCN)NC1=O [Compound 1309] ({CH2CO}-[Dap]Y(Carboxymethyl)D[Bta]Y(Carboxymethyl)[Bip]Y[Orn][dL][Dab][Cha]V[Orn]C[Dab][AEEA][Aun]-OH; thioether N-14) | 7.20 |
| Cc1cccc(C[C@@H]2NC(=O)C(CC(=O)O)NC(=O)[C@H](Cc3ccc(OCC(=O)O)cc3)NC(=O)[C@H](CN)NC(=O)CSC[C@@H](C(=O)N[C@@H](CCCNC(=N)N)C(=O)NCCCCCCCCCCC(=O)O)NC(=O)[C@H]([C@@H](C)O)NC(=O)[C@H](C(C)C)NC(=O)[C@H](CC3CCCCC3)NC(=O)[C@H](CCN)NC(=O)[C@@H](CC(C)C)NC(=O)[C@H](CCCN)NC(=O)[C@H](CCCNC(N)=O)NC(=O)C(Cc3ccc(-c4ccccc4)cc3)NC(=O)[C@H](C(C)C)NC2=O)c1 (stereo partly drawn) [Compound 1174] ({CH2CO}-[Dap]Y(Carboxymethyl)[ξD][Phe(3-Me)]V[ξBip][Cit][Orn][dL][Dab][Cha]VTCR[Aun]-OH; thioether N-14) | 7.78 |
| Cc1cccc(C[C@@H]2NC(=O)[C@H](CC(=O)O)NC(=O)[C@H](Cc3ccc(OCC(=O)O)cc3)NC(=O)[C@H](CN)NC(=O)CSC[C@@H](C(=O)N[C@@H](CCN)C(=O)NCCOCCOCC(=O)NCCCCCCCCCCC(=O)O)NC(=O)[C@H](CN)NC(=O)[C@H](C(C)C)NC(=O)[C@H](CC3CCCCC3)NC(=O)[C@H](CCN)NC(=O)[C@@H](CC3CCCCC3)NC(=O)[C@H](CCCN)NC(=O)[C@H](C(C)C)NC(=O)[C@H](Cc3ccc(-c4ccccc4)cc3)NC(=O)[C@H](C(C)C)NC2=O)c1 [Compound 2681] ({CH2CO}-[Dap]Y(Carboxymethyl)D[Phe(3-Me)]V[Bip]V[Orn][dCha][Dab][Cha]V[Dap]C[Dab][AEEA][Aun]-OH; thioether N-14) | 7.89 |
| CC(C)C[C@H]1NC(=O)[C@H](CCCN)NC(=O)[C@H](C(C)C)NC(=O)[C@H](Cc2ccc(-c3ccccc3)cc2)NC(=O)[C@H](C(C)C)NC(=O)[C@H](Cc2c[nH]c3ccccc23)NC(=O)[C@H](CC(=O)O)NC(=O)[C@H](Cc2ccc(OCC(=O)O)cc2)NC(=O)[C@H](CN)NC(=O)CSC[C@@H](C(=O)N[C@@H](CCCN)C(=O)NCCCCCCCCCCC(=O)O)NC(=O)[C@@H](CCC(N)=O)NC(=O)[C@H](C(C)C)NC(=O)[C@H](CC2CCCCC2)NC(=O)[C@H](Cc2c[nH]cn2)NC1=O [Compound 2796] ({CH2CO}-[Dap]Y(Carboxymethyl)DWV[Bip]V[Orn][dL]H[Cha]V[dQ]C[Orn][Aun]-OH; thioether N-14) | 7.11 |
| C#CCOc1ccc(C[C@@H]2NC(=O)[C@H](C(C)C)NC(=O)[C@H](CC3CCCCC3)NC(=O)[C@H](CCN)NC(=O)[C@@H](CC(C)C)NC(=O)[C@H](CCCN)NC(=O)[C@H](Cc3ccc(OCC(=O)O)cc3)NC(=O)[C@H](Cc3ccc(-c4ccccc4)cc3)NC(=O)[C@H](Cc3ccc(OCC(=O)O)cc3)NC(=O)[C@H](Cc3cccc(C)c3)NC(=O)[C@H](CC(=O)O)NC(=O)[C@H](Cc3ccc(OCC(=O)O)cc3)NC(=O)[C@H](CN)NC(=O)CSC[C@@H](C(=O)N[C@@H](CCN)C(=O)NCCCCCCCCCCC(=O)O)NC2=O)cc1 [Compound 1248] ({CH2CO}-[Dap]Y(Carboxymethyl)D[Phe(3-Me)]Y(Carboxymethyl)[Bip]Y(Carboxymethyl)[Orn][dL][Dab][Cha]VY(Propargyl)C[Dab][Aun]-OH; thioether N-14) | 6.43 |
| CC(C)C[C@H]1NC(=O)[C@H](CCCN)NC(=O)[C@H](CCC(=O)O)NC(=O)[C@H](Cc2ccc(-c3ccccc3)cc2)NC(=O)[C@H](C(C)C)NC(=O)[C@H](Cc2c[nH]c3ccccc23)NC(=O)[C@H](CC(=O)O)NC(=O)[C@H](Cc2ccc(OCC(=O)O)cc2)NC(=O)[C@H](CN)NC(=O)CSCC(C(=O)NCCOCCOCC(=O)NCCCCCCCCCCC(=O)O)NC(=O)[C@H](CCCCN)NC(=O)[C@H](C(C)C)NC(=O)[C@H](CC2CCCCC2)NC(=O)[C@H](CCN)NC1=O (stereo partly drawn) [Compound 2665] ({CH2CO}-[Dap]Y(Carboxymethyl)DWV[Bip]E[Orn][dL][Dab][Cha]VK[ξC][AEEA][Aun]-OH; thioether N-14) | 7.65 |

More lines, now with the values ahead:

| pIC50 | SMILES |
| --- | --- |
| 7.72 | CC(C)C[C@H]1NC(=O)[C@H](CCCN)NC(=O)[C@H](C(C)C)NC(=O)[C@H](Cc2ccc(-c3ccccc3)cc2)NC(=O)[C@H](C(C)C)NC(=O)[C@H](Cc2csc3ccccc23)NC(=O)[C@H](CC(=O)O)NC(=O)[C@H](Cc2ccc(OCC(=O)O)cc2)NC(=O)[C@H](CCCCNC(=N)N)NC(=O)CSC[C@@H](C(=O)NCC(=O)NCCOCCOCC(=O)N[C@H](CCCN)C(=O)NCCCCCCCCCCC(=O)O)NC(=O)[C@H](CO)NC(=O)[C@H](C(C)C)NC(=O)[C@H](CC2CCCCC2)NC(=O)[C@H](CCN)NC1=O [Compound 3065] ({CH2CO}-[hArg]Y(Carboxymethyl)D[Bta]V[Bip]V[Orn][dL][Dab][Cha]VSCG[AEEA][dOrn][Aun]-OH; thioether N-14) |
| 7.70 | CC(C)C[C@@H]1NC(=O)[C@H](Cc2c[nH]c3ccccc23)NC(=O)[C@H](CC(=O)O)NC(=O)[C@H](Cc2ccc(OCC(=O)O)cc2)NC(=O)[C@H](CN)NC(=O)CSC[C@@H](C(=O)N[C@@H](CCN)C(=O)NCCCCCCCCCCC(=O)O)NC(=O)[C@H](CCCN)NC(=O)[C@H](C(C)O)NC(=O)[C@H](CC2CCCCC2)NC(=O)[C@H](CCN)NC(=O)[C@@H](CC(C)C)NC(=O)[C@H](CCCN)NC(=O)[C@H](C(C)C)NC(=O)[C@H](Cc2ccc(-c3ccccc3)cc2)NC1=O (stereo partly drawn) [Compound 3687] ({CH2CO}-[Dap]Y(Carboxymethyl)DWL[Bip]V[Orn][dL][Dab][Cha][Thr(3ξ)][Orn]C[Dab][Aun]-OH; thioether N-14) |
| 7.88 | Cc1cccc(C[C@@H]2NC(=O)[C@H](CC(=O)O)NC(=O)[C@H](Cc3ccc(OCC(=O)O)cc3)NC(=O)[C@H](Cc3ccncc3)NC(=O)CSC[C@@H](C(=O)N[C@@H](CO)C(=O)NCCCCCCCCCCC(=O)O)NC(=O)[C@H](C(C)O)NC(=O)[C@H](C(C)(C)O)NC(=O)[C@H](CC3CCCCC3)NC(=O)[C@H](CCN)NC(=O)[C@@H](CC(C)C)NC(=O)[C@H](CCCN)NC(=O)[C@H](Cc3ccc(O)cc3)NC(=O)[C@H](Cc3ccc(-c4ccccc4)cc3)NC(=O)[C@H](Cc3ccc(C(N)=O)cc3)NC2=O)c1 (stereo partly drawn) [Compound 3726] ({CH2CO}-[4Pal]Y(Carboxymethyl)D[Phe(3-Me)][Phe(4-CONH2)][Bip]Y[Orn][dL][Dab][Cha][Val(3-OH)][Thr(3ξ)]CS[Aun]-OH; thioether N-14) |
| 7.09 | CC(=O)NCC[C@@H]1NC(=O)[C@H](C(C)C)NC(=O)[C@H](CC2CCCCC2)NC(=O)[C@H](CCN)NC(=O)[C@@H](CC(C)C)NC(=O)[C@H](CCC(=O)O)NC(=O)[C@H](C(C)C)NC(=O)[C@H](Cc2ccc(-c3ccccc3)cc2)NC(=O)[C@H](CC(C)C)NC(=O)[C@H](Cc2c[nH]c3ccccc23)NC(=O)[C@H](CC(=O)O)NC(=O)[C@H](Cc2ccc(OCC(=O)O)cc2)NC(=O)[C@H](C(C)O)NC(=O)CSC[C@@H](C(=O)NCCOCCOCC(=O)NCCCCCCCCCCC(=O)O)NC1=O (stereo partly drawn) [Compound 3710] ({CH2CO}-[Thr(3ξ)]Y(Carboxymethyl)DWL[Bip]VE[dL][Dab][Cha]V[Dab](Ac)C[AEEA][Aun]-OH; thioether N-14) |
| 7.76 | Cc1cccc(C[C@@H]2NC(=O)[C@H](CC(=O)O)NC(=O)[C@H](Cc3ccc(OCC(=O)O)cc3)NC(=O)[C@H](CCCCNC(=N)N)NC(=O)CSC[C@@H](C(=O)N[C@@H](CCCN)C(=O)N[C@@H](CO)C(=O)NCCCCCCCCCCCC(=O)O)NC(=O)[C@H](CO)NC(=O)[C@H](C(C)C)NC(=O)[C@H](CC3CCCCC3)NC(=O)[C@H](CCN)NC(=O)[C@@H](CC(C)C)NC(=O)[C@H](CCCN)NC(=O)[C@H](CCCNC(=N)N)NC(=O)[C@H](Cc3ccc(-c4ccccc4)cc3)NC(=O)[C@H](C(C)C)NC2=O)c1 [Compound 3576] ({CH2CO}-[hArg]Y(Carboxymethyl)D[Phe(3-Me)]V[Bip]R[Orn][dL][Dab][Cha]VSC[Orn]S[12Ado]-OH; thioether N-14) |
| 7.56 | CC(C)C[C@H]1NC(=O)[C@H](CCCN)NC(=O)[C@H](C(C)C)NC(=O)[C@H](Cc2ccc(-c3ccccc3)cc2)NC(=O)[C@H](CCO)NC(=O)[C@H](Cc2c[nH]c3ccccc23)NC(=O)[C@H](CC(=O)O)NC(=O)[C@H](Cc2ccc(OCC(=O)O)cc2)NC(=O)[C@H](CCCNC(=N)N)NC(=O)CSC[C@@H](C(=O)N[C@@H](CCCN)C(=O)NCCCCCCCCCCC(=O)O)NC(=O)[C@H](C(C)O)NC(=O)[C@H](C(C)C)NC(=O)[C@H](CC2CCCCC2)NC(=O)[C@H](CCN)NC1=O (stereo partly drawn) [Compound 3338] ({CH2CO}-RY(Carboxymethyl)DW[hSer][Bip]V[Orn][dL][Dab][Cha]V[Thr(3ξ)]C[Orn][Aun]-OH; thioether N-14) |
| 8.02 | Cc1cccc(C[C@@H]2NC(=O)[C@H](CC(=O)O)NC(=O)[C@H](Cc3ccc(OCC(=O)O)cc3)NC(=O)[C@H](CC(N)=O)NC(=O)CSC[C@@H](C(=O)N[C@@H](CCN)C(=O)NCCCCCCCCCCC(=O)O)NC(=O)[C@H](CCC(=O)O)NC(=O)[C@H](C(C)C)NC(=O)[C@H](CC3CCCCC3)NC(=O)[C@H](CCN)NC(=O)[C@@H](CC(C)C)NC(=O)[C@H](CCCN)NC(=O)[C@H](Cc3ccc(O)cc3)NC(=O)[C@H](Cc3ccc(-c4ccccc4)cc3)NC(=O)[C@H](C(C)C)NC2=O)c1 [Compound 3379] ({CH2CO}-NY(Carboxymethyl)D[Phe(3-Me)]V[Bip]Y[Orn][dL][Dab][Cha]VEC[Dab][Aun]-OH; thioether N-14) |
